Measurements reported in patent publication US7388095B2, “5-substituted indole-2-carboxamide derivatives” (Hoffmann-La Roche Inc., priority 2005, dated 2008).

target: T1, histamine 3 receptor (H3R) (Homo sapiens, UniProt Q9Y5N1); assay: Competition binding assay with 3H-(R)α-methylhistamine on membranes of the human HR3-CHO cell line; conditions: 3H(R)α-methylhistamine 1 nM, Ki calculated from IC50 by Cheng-Prusoff equation
T1 construct: expressed in transfected cells; host or cells: CHO cells (HR3-CHO cell line), membrane preparation
Protocol: Binding assay with ^3H-(R)α-methylhistamine
Saturation binding experiments were performed using HR3-CHO membranes prepared as described in Takahashi, K, Tokita, S., Kotani, H. (2003) J. Pharmacol. Exp. Therapeutics 307, 213-218.
An appropriate amount of membrane (60 to 80 μg protein/well) was incubated with increasing concentrations of ^3H(R)α-Methylhistamine di-hydrochloride (0.10 to 10 nM). Non-specific binding was determined using a […] excess of cold (R)α-methylhistamine dihydrobromide (500 nM final concentration). The incubation was carried out at room temperature (in deep-well plates shaking for three hours). The final volume in each well was 250 μl. The incubation was followed by rapid filtration on GF/B filters (pre-soaked with 100 μl of 0.5% PEI in Tris 50 mM shaking at 200 rpm for two hours). The filtration was made using a cell-harvester and the filter plates were then washed five times with ice cold washing buffer containing 0.5 M NaCl. After harvesting, the plates were dried at 55° C. for 60 min, then scintillation fluid (Microscint 40, 40 microl in each well) was added and the amount of radioactivity on the filter was determined with a Packard top-counter after shaking the plates for two hours at 200 rpm at room temperature.
Binding Buffer: 50 mM Tris-HCl pH 7.4 and 5 mM MgCl2x6H2O pH 7.4. Washing Buffer: 50 mM Tris-HCl pH 7.4 and 5 mM MgCl2x6H2O and 0.5 M NaCl pH 7.4.
Indirect measurement of affinity of H3R inverse agonists: twelve increasing concentrations (ranging from 10 μM to 0.3 nM) of the selected compounds were always tested in competition binding experiments using membrane of the human HR3-CHO cell line. An appropriate amount of protein, e.g. approximately 500 cpm binding of RAMH at Kd, were incubated for 1 hour at room temperature in 250 μl final volume in 96-well plates in presence of ^3H(R)α-methylhistamine (1 nM final concentration=Kd). […]
All compounds were tested at a single concentration in duplicates. […] Ki's were calculated from IC50 based on Cheng-Prusoff equation (Cheng, Y, Prusoff, W H (1973) Biochem Pharmacol 22, 3099-3108).

T1 sequence (Q9Y5N1 whole entry): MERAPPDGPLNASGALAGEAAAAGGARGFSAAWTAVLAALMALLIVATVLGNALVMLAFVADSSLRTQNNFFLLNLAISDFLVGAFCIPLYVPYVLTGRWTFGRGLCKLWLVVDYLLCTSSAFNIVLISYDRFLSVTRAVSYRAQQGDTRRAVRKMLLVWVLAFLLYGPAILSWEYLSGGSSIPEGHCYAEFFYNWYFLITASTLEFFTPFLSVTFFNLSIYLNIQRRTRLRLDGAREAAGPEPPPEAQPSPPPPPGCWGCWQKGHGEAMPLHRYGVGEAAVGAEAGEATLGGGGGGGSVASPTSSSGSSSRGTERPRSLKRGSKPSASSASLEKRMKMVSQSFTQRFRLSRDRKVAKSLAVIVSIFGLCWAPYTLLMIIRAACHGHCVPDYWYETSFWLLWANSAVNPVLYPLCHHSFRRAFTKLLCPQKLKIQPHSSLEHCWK

| Ki | SMILES |
| --- | --- |
| 30 nM | CC(C)N1CCOC(COc2ccc3c(c2)cc(C(=O)N2CCOCC2)n3CC(F)(F)F)C1 (stereo not drawn) [Example 1, [5-(4-Isoopropyl-morpholin-2-ylmethoxy)-1-(2,2,2-trifluoro-ethyl)-1H-indol-2-yl]-morpholin-4-yl-methanone] |
| 40 nM | O=C(c1cc2cc(OCCCN3CC4CC4C3)ccc2[nH]1)N1CCOCC1 (stereo not drawn) [Example 5, {5-[3-(3-Aza-bicyclo[3.1.0]hex-3-yl)-propoxy]-1H-indol-2-yl}-morpholin-4-yl-methanone] |
| 26 nM | O=C(c1cc2cc(OCCCN3CC4CC4C3)ccc2n1CC(F)(F)F)N1CCOCC1 (stereo not drawn) [Example 6, [5-[3-(3-Aza-bicyclo[3.1.0]hex-3-yl)-propoxy]-1-(2,2,2-trifluoro-ethyl)-1H-indol-2-yl]-morpholin-4-yl-methanone] |
